# Experimental data taken from patent US10059741B2 (priority 2015, dated 2018).
# “And” between values parts separate entries of the source, which are not always exact repeats. Identical values can stand only once. Like-named read-outs stand apart in the source and are kept apart here. Bridge positions count the residues as written; N and C are the ends. Square brackets hold non-standard residues; d marks the D form. Peptide text beside a SMILES is read from it. S5 = C=CCCC[C@](C)(N)C(=O)O; Nle = CCCC[C@H](N)C(=O)O; Aib = CC(C)(N)C(=O)O
# How the values were obtained:
# H1N1 California/07/2009 [1] = experiment: microbe, parasite or virus in culture; type: cell-based, influenza A virus; details: for EC90: read-out: EC90
# H3N2 Perth/16/2009 [2] = experiment: microbe, parasite or virus in culture; type: cell-based, influenza A virus
# H1N1 California/07/2009 [3] = experiment: microbe, parasite or virus in culture; type: cell-based, influenza A virus; details: read-out: EC50 (μM) H1N1 California/07/2009
# H3N2 Perth/16/2009 [4] = experiment: microbe, parasite or virus in culture; type: cell-based, influenza A virus; remark: listed apart in the source
# [5] = test system: H1N1 A/Solomon Island/03/2006; type: cell-based, influenza A virus
# H1N1 A/Brisbane/59/2007 = experiment: Cytopathic effect (CPE) inhibition in MDCK cells, neutral red; type: cell-based, influenza A virus
# [6] = test system: H5N1 A/Hong Kong/213/2003; experiment: microbe, parasite or virus in culture; type: cell-based, influenza A virus
# H7N9 A/Anhui/1/2013 = experiment: microbe, parasite or virus in culture; type: cell-based, influenza A virus
# [7] = test system: Influenza B Florida/04/2006; experiment: Cytopathic effect (CPE) inhibition in MDCK cells, neutral red; type: cell-based
# [8] = test system: Influenza B Brisbane/60/2008; experiment: as above; type: cell-based
# [9] = test system: influenza virus, various viral strains; experiment: Influenza antiviral evaluation assay (CPE, neutral red dye uptake) in MDCK cells against various viral strains (Tables 8, 9); type: cell-based
# [10] = test system: influenza virus, various viral strains; type: cell-based
# [11] = test system: Influenza A H3N2 Influenza A/Brisbane/10/2007; experiment: microbe, parasite or virus in culture; type: cell-based, influenza A virus; details: for EC50: read-out: EC50; for EC90: read-out: EC90
# [12] = test system: Influenza A H1N1 Influenza A/California/7/2009; experiment: microbe, parasite or virus in culture; type: cell-based, influenza A virus; details: for EC50: read-out: EC50; for EC90: read-out: EC90
# [13] = test system: Influenza B/Brisbane/60/2008; experiment: microbe, parasite or virus in culture; type: cell-based
# [14] = test system: Influenza A H1N1 Influenza A/Texas/4/2009; experiment: microbe, parasite or virus in culture; type: cell-based, influenza A virus; details: for EC50: read-out: EC50; for EC90: read-out: EC90
# H1N1 A/PR/8/34 = details: read-out: EC50 (μM), Cytopathic effect by Neutral Red
# [15] = mouse, in vivo
# in vitro = details: dog
# H5N1 A/Duck/MN/1525/81 = experiment: microbe, parasite or virus in culture; type: cell-based, influenza A virus; details: read-out: EC50
# [16] = Plasma PK in a cyno monkey, single subcutaneous dose
# [17] = read-out: EC50 (μM) H3N2 Perth/16/2009
# [18] = read-out: EC50 (μM), Cytopathic effect by Neutral Red
# [19] = cynomolgus monkey, sc, 2.25 mg/kg
structure (smiles),measurement,setting,value
CCCC[C@H](NC(C)=O)C(=O)N[C@@H](CC(=O)O)C(=O)N[C@H](C(=O)N[C@@H](CC(N)=O)C(=O)N[C@@]1(C)CCCC=CCCC[C@@](C)(C(=O)N[C@@H](CC(C)C)C(=O)N[C@@H](C)C(=O)N[C@H](C(=O)NC(C)(C)C(=O)N[C@@H](C)C(=O)N[C@@H](CCC(N)=O)C(N)=O)C(C)C)NC(=O)[C@H](CC(C)C)NC(=O)[C@H](CC(C)C)NC(=O)[C@H]([C@@H](C)O)NC1=O)C(C)C [SP-6] (Ac-[Nle]DVN[S5]TLL[S5]LAV[Aib]AQ-NH2; staple 5-9),EC50,H1N1 California/07/2009 [1]; read-out: EC50 (μM) H1N1 California/07/2009,10 to 25 µM
same,EC90,H1N1 California/07/2009 [1],> 36 µM
same,EC90,H3N2 Perth/16/2009 [2],22 µM
same,EC50,H3N2 Perth/16/2009 [2]; [17],25 to 50 µM
same,EC50,H1N1 California/07/2009 [3],10 to 25 µM
same,EC50,H3N2 Perth/16/2009 [4]; [17],25 to 50 µM
same,EC50,H3N2 Perth/16/2009 [4]; [18],1.5 to 10 µM
same,EC50,[5]; [18],1.5 to 10 µM and < 1.5 µM
same,EC50,H1N1 A/Brisbane/59/2007; read-out: EC50,5.6 µM and 5.5 µM
same,EC50,H1N1 A/Brisbane/59/2007; [18],1.5 to 10 µM
same,EC50,[6]; read-out: EC50,> 100 µM
same,EC50,[6]; [18],> 50 µM
same,EC50,H7N9 A/Anhui/1/2013; read-out: EC50,> 100 µM
same,EC50,H7N9 A/Anhui/1/2013; [18],> 50 µM
same,EC50,[7]; read-out: EC50,18 µM
same,EC50,[7]; [18],10 to 25 µM
same,EC50,[8]; read-out: EC50,7.1 µM
same,EC50,[8]; [18],1.5 to 10 µM
same,antiviral activity across influenza strains,[9],broad antiviral activity
same,EC50,[10],> 100 µM
same,EC90,[10],> 100 µM and 66 µM and 65 µM
same,EC50,[11],> 100 µM
same,EC90,[11],> 100 µM
same,EC50,[12],> 100 µM
same,EC90,[12],> 100 µM
same,EC50,[13],> 100 µM
same,EC90,[13],> 100 µM
same,EC50,[14],> 100 µM
same,EC90,[14],> 100 µM
same,EC50,H1N1 A/PR/8/34,10 to 25 µM
same,survival,[15],all mice survived
same,CC50,in vitro; CC50,> 100 µM
same,CC50,"in vitro; CC50 (μM) H1N1 California/07/2009, Cell cytotoxicity (CC), run with H1N1 California/07/2009",> 100 µM
same,CC50,"in vitro; CC50 (μM) H3N2 Perth/16/2009, Cell cytotoxicity (CC), run with H3N2 Perth/16/2009",> 100 µM
same,CC50,"in vitro; CC50, MDCK cells, run with Influenza A H1N1 Brisbane/59/2007, Neutral Red",> 100 µM
same,CC50,"in vitro; CC50, MDCK cells, run with Influenza A H1N1 Brisbane/59/2007, Visual",> 100 µM
same,CC50,"in vitro; CC50, MDCK cells, run with Influenza A H1N1 California/04/2009-M, Neutral Red",> 100 µM
same,CC50,"in vitro; CC50, MDCK cells, run with Influenza A H1N1 California/04/2009-M, Visual",> 100 µM
same,CC50,"in vitro; CC50, MDCK cells, run with Influenza A H1N1 California/07/2009, VYR/Neutral Red",> 100 µM
same,CC50,"in vitro; CC50, MDCK cells, run with Influenza A H1N1 Solomon Is./3/2006-M, Neutral Red",> 100 µM
same,CC50,"in vitro; CC50, MDCK cells, run with Influenza A H1N1 Solomon Is./3/2006-M, Visual",> 100 µM
same,CC50,"in vitro; CC50, MDCK cells, run with Influenza A H1N1 Solomon Is./03/2006, Neutral Red",> 100 µM
same,CC50,"in vitro; CC50, MDCK cells, run with Influenza A H1N1 Solomon Is./03/2006, Visual",> 100 µM
same,CC50,"in vitro; CC50, MDCK cells, run with Influenza A H3N2 Perth/16/2009, Neutral Red",> 100 µM
same,CC50,"in vitro; CC50, MDCK cells, run with Influenza A H3N2 Perth/16/2009, VYR/Neutral Red",> 100 µM
same,CC50,"in vitro; CC50, MDCK cells, run with Influenza A H3N2 Perth/16/2009, Visual",> 100 µM
same,CC50,"in vitro; CC50, MDCK cells, run with Influenza A H3N2 Victoria/3/75-M, Neutral Red",> 100 µM
same,CC50,"in vitro; CC50, MDCK cells, run with Influenza A H3N2 Victoria/3/75-M, Visual",> 100 µM
same,CC50,"in vitro; CC50, MDCK cells, run with Influenza B Brisbane/60/2008, Neutral Red",> 100 µM
same,CC50,"in vitro; CC50, MDCK cells, run with Influenza B Brisbane/60/2008, Visual",> 100 µM
same,CC50,"in vitro; CC50, MDCK cells, run with Influenza B Florida/04/2006, Neutral Red",98 µM
same,CC50,"in vitro; CC50, MDCK cells, run with Influenza B Florida/04/2006, Visual",> 100 µM
same,CC50,"in vitro; CC50, MDCK cells, run with Influenza B Sichuan/379/99-M, Neutral Red",> 100 µM
same,CC50,"in vitro; CC50, MDCK cells, run with Influenza B Sichuan/379/99-M, Visual",> 100 µM
same,CC50,"in vitro; CC50, run with Influenza A H3N2 Perth/16/2006 (so in the source), Neutral Red",> 100 µM
same,CC50,"in vitro; CC50, run with Influenza A H3N2 Perth/16/2006 (so in the source), Visual",> 100 µM
"CCCC[C@H](NC(C)=O)C(=O)N[C@@H](CC(=O)O)C(=O)N[C@H](C(=O)N[C@@H](CC(N)=O)C(=O)N[C@@]1(C)CCCC=CCCC[C@@](C)(C(=O)N[C@@H](CC(C)C)C(=O)N[C@@H](CCCCN)C(=O)N[C@H](C(=O)NC(C)(C)C(=O)N[C@@H](C)C(=O)N[C@@H](CCC(N)=O)C(N)=O)C(C)C)NC(=O)[C@H](CC(C)C)NC(=O)[C@H](CC(C)C)NC(=O)[C@H]([C@@H](C)O)NC1=O)C(C)C [AP1, Ac-NleDVN$TLL$LKVAibAQ-NH2] (Ac-[Nle]DVN[S5]TLL[S5]LKV[Aib]AQ-NH2; staple 5-9)",EC50,H1N1 California/07/2009 [1]; read-out: EC50,28 µM
same,EC90,H1N1 California/07/2009 [1],> 65 µM
same,EC90,H3N2 Perth/16/2009 [2],28 µM
same,EC50,H3N2 Perth/16/2009 [2]; read-out: EC50,12 µM
same,EC50,[5]; read-out: EC50,3 µM and 1.8 µM
same,EC50,H5N1 A/Duck/MN/1525/81,6.3 µM and 6.4 µM
same,EC50,[6]; read-out: EC50,> 100 µM
same,EC50,H7N9 A/Anhui/1/2013; read-out: EC50,> 100 µM
same,EC50,[7]; read-out: EC50,11 µM
same,EC50,[8]; read-out: EC50,6.9 µM
same,EC90,[10],> 100 µM
same,EC50,[11],> 100 µM
same,EC90,[11],> 100 µM
same,EC50,[12],> 100 µM
same,EC90,[12],> 100 µM
same,EC50,[13],> 100 µM
same,EC90,[13],> 100 µM
same,EC50,[14],> 100 µM
same,EC90,[14],> 100 µM
same,CC50,in vitro; CC50,> 100 µM
same,time at which drug levels were measureable (last time point assessed),"[16]; cyno monkey, single subcutaneous dose 2.25 mg/kg",96 h
same,MRT,[16]; [19],21 h
same,half-life,[16]; [19],780 min
